Entries after “also recorded” stand apart in the source; their conditions may differ.
Experiments:
IRS-1 (Tyr612) = assay: Western blot, activating phosphorylation of IRS-1 (Tyr612); format: cell-based; conditions: n = 4–8; for insulin-induced IRS-1 phosphorylation: 400 nmol/L insulin, adipocytes, HEK cells, podocytes, macrophages; for basal IRS-1 phosphorylation: without insulin, cells grown on o- or m-Tyr medium
Experimental: Early passages of mouse embryo fibroblast (3T3-L1) (ATCC, Manassas, VA, US) were cultured in Dulbecco’s modified Eagle medium (DMEM, Sigma Aldrich, Budapest, Hungary, CAT number: D6046; Invitrogen, Waltham, MA, USA, CAT number: 41966-029) supplemented with 100 U/mL penicillin, 0.1 mg/mL streptomycin (Gibco, Budapest, Hungary, CAT number: 15070-063) and 10% heat-inactivated Fetal Bovine Serum (FBS, Gibco, CAT number: 16170-078), supplemented with 398 nM p-, m-, or o-Tyr (equimolar to the original p-Tyr content of the medium) purchased from Sigma (CAT number: para-Tyr: T8566, m-Tyr: T3629, o-Tyr: 93851). Media contained 25 or 5 mmol/L glucose (experiment dependent) pyruvate and L-glutamine. Cells were grown at 37 °C and 5% CO2. Adipocyte differentiation was achieved by DMEM supplemented with 10% FBS (Gibco, Csertex, Budapest, Hungary, CAT number: 10106-169) (FBS) and a […] insulin (Sigma Aldrich, Budapest, Hungary, CAT number: I 9278), […] isobuthylmethylxanthine (Sigma Aldrich, Budapest, Hungary, CAT number: I 5879), and 250 nmol/L dexamethasone (Sigma Aldrich, Budapest, Hungary, CAT number: 861871) containing cocktail. From day 4 onward, cultures were maintained in DMEM containing 1.5 μg/mL insulin and 10% FBS with a medium change every other day until experimental treatments were started. After 90% of the cell population reached the adipocyte phenotype, prior to all treatments, cells were incubated overnight in serum-deprived medium. Experimental treatment was performed in serum-deprived medium containing 200 or 400 nmol/L insulin, for 5 min.
(§1) The conditionally immortalized human podocyte cell line (provided by Moin Saleem, University of Bristol, UK) was cultured in RPMI1640 medium (R8756, Sigma Aldrich, Budapest, Hungary) supplemented with 10% heat-inactivated FBS (16170-078, Gibco, Budapest, Hungary), insulin-transferrin-selenium supplement (41400-045, Gibco), 100 U/mL penicillin, 0.1 mg/mL streptomycin (P4333, Sigma), and […] (equimolar to the original p-Tyr content of the medium) para-, meta-, or ortho-Tyr. The cells were grown at 33 °C 5% CO2, and when they reached 40–60% confluency they were transferred to 37 °C to differentiate. Following the thermoswitching, cells were kept on RPMI1640 medium containing 2% FBS, antibiotics, and different tyrosines. Before every treatment, cells were incubated in serum-deprived medium overnight.
HEK-293 immortalized cell line (ATCC, Manassas, VA, USA) of epithelial morphology and the J774A.1 mouse BALB/C monocyte-macrophage cell lines (91051511-1VL, Sigma Aldrich, Budapest, Hungary) were cultured in Petri dishes with a medium composed of Dulbecco’s modified Eagle’s medium (DMEM, Sigma Aldrich, Budapest, Hungary, CAT number: D6046, Invitrogen, CAT number: 41966-029), with a 10% heat-inactivated FBS supplementation (16170-078, Gibco), insulin-transferrin-selenium supplement (41400-045, Gibco, Budapest, Hungary,), 100 U/mL penicillin and 0.1 mg/mL streptomycin (P4333, Sigma) and 398 nM para (5 and 25 mmol/L), meta-, or ortho-Tyr (T8566, T3629, 93851, Sigma). Before treatment, cells were incubated in serum-deprived medium overnight as well. […]
The samples of lysates were vortexed and centrifuged (10 min, 13,000 rpm, at 4 °C). Protein content of the samples was determined by the Lowry method using bovine serum albumin as a standard. […]

p-IRS-1 in podocytes = assay: Immunofluorescence of p-IRS-1 in insulin-treated podocytes; format: cell-based, human; conditions: 400 nmol/l insulin for 10 min; for p-IRS-1 intensity: vs. p-Tyr
Experimental: as §1
In a 6-well plate, 104 cells were cultured on glass coverslips washed with alcohol and dried under UV light. The podocyte cells were grown in RPMI1640 medium supplemented with 10% heat-inactivated FBS at 33 °C, 5% CO2. When they reached 60% confluence, the medium was changed to RPMI1640 medium containing 2% FBS and 112.05 nM of the different tyrosine isoforms, then the plates were transferred to 37 °C, 5% CO2 to allow the cells to differentiate. The different tyrosine isoforms were added to the maintenance medium. The cells were serum deprived overnight, then incubated with 400 nmol/l insulin for 10 min. After removal of the medium, the coverslips were washed twice with PBS. The cells were fixed at room temperature in 2% paraformaldehyde and 4% sucrose for 8 min, then permeabilized using 0.3% Trion X-100 in 1xPBS for 20 min and blocked in 2.5% BSA for 45 min [45]. The primary antibody was diluted in 1xPBS, and the cells were incubated in it for 60 min in humid conditions. The antibodies we used were mouse anti-WT1 antibody (H-1) (1:100, Santa Cruz Biotechnology, Dallas, TX, USA), chicken anti-vimentin antibody (1:100, Abcam), rabbit anti-glucose transporter GLUT4 antibody (1:100, Abcam, Cambridge, UK), mouse Insulin Receptor Substrate-1 antibody (1:100, Invitrogen, Waltham, MA, USA), and rabbit anti-phospho-Insulin Receptor Substrate-1 (pTyr612) antibody (1:10, Sigma). Coverslips were washed in PBS three times for 5 min in PBS and incubated in the fluorophore-conjugated secondary antibodies anti-goat, anti-chicken, secondary antibody Alexa fluor 647, anti-rabbit Alexa fluor 350, and anti-mouse Alexa Fluor 488 (1:10, Invitrogen) for 60 min. Samples were then washed in PBS three times for 5 min and mounted in Vectashield (Vector Laboratories). Images were taken with a Nikon Eclipse Ti2 microscope.

plants = conditions: ref [41]; cited from earlier work
From the text: (§2) Furthermore, m- and o-Tyr may have a role beyond being markers ROS attack. […] For example, we have described that patients on renal replacement therapy show a connection between plasma levels of o-Tyr and erythropoietin (EPO) resistance. In a further set of experiments, m- and o-Tyr in ...

concomitant tumor growth = conditions: ref [42]; cited from earlier work
From the text: as §2

SMILES	insulin-induced IRS-1 phosphorylation (IRS-1 (Tyr612))	basal IRS-1 phosphorylation (IRS-1 (Tyr612))	membrane translocation of IRS-1 / p-IRS-1 (p-IRS-1 in podocytes)	membrane translocation of IRS-1 / p-IRS-1 (p-IRS-1 in podocytes; listed as o-Ty)	p-IRS-1 intensity (p-IRS-1 in podocytes)	natural herbicide, plant growth (plants)	inhibition of concomitant tumor growth (concomitant tumor growth)
NC(Cc1ccccc1O)C(=O)O (centres unmarked) [o-Tyr, ortho-tyrosine]	could not be further raised by insulin treatment	either unchanged or higher	not characteristic	absent	lower; also recorded: the signal almost disappears	–	–
N[C@@H](Cc1cccc(O)c1)C(=O)O [m-Tyr, meta-tyrosine]	could not be further raised by insulin treatment	either unchanged or higher	absent; also recorded: not characteristic	–	lower	act as a natural herbicide and inhibit the growth of plants	involved in the inhibition of concomitant tumor growth
